The numbers were not newly measured in patent US20250262166A1, “NANOPARTICLES COMPRISING ENZALUTAMIDE” (priority 2019, published 2025), which cites them from elsewhere.

For `CNC(=O)c1ccc(N2C(=S)N(c3ccc(C#N)c(C(F)(F)F)c3)C(=O)C2(C)C)cc1F` [Enzalutamide], the solubility in water result is given as “insoluble in water”.
